Measured values published in paper PMC8880313, “Discovery of Novel Andrographolide Derivatives as Antiviral Inhibitors against Human Enterovirus A71” (Pharmaceuticals, 2022).

Legend:
[1] = test system: CV-B5; test: Post-treatment assay, antiviral spectrum; format: cell-based, Coxsackievirus B5
Method: (§1) We were also interested in the antiviral potential of ZAF-47 against other Enteroviruses. As such, we performed post-treatment assay on RD cells infected with other Enteroviruses such as CV-A16, CV-A6, Echo7, CV-B5, CV-A24 and EV-D68.
(§2) To determine the inhibitory profiles of the hits, post treatment assay was performed. Seeded 24-well plates, with 1.5 × 10^5 RD cells per well, were incubated overnight at 37 °C with 5% CO2. The seeded cells were infected with EV-A71 (100 µL per well, MOI = 1) for 1 h at 37 °C with 5% CO2 and then rinsed with 1 mL of PBS twice. Different concentrations of the hits were used to treat the infected cells for 12 h at 37 °C with 5% CO2. At 12 hpi, the plates were frozen and thawed for 2 cycles (−80°C; 37 °C) before collection of supernatants to measure the viral titres via viral plaque assay.
(§3) Measurement of the viral titres from collected supernatants was derived from viral plaque assays. To do this, 24-well plates, seeded with 2.4 × 10^5 RD cells per well, were used in plaque assays for EV-A71, EV-D68, Echo7, CV-A6, CV-A16 and CV-A24 while 24-well plates, seeded with 1.2 × 10^5 Vero cells per well, were used in plaque assays for CV-B5. Seeded cells were incubated overnight at 37 °C with 5% CO2. […] Subsequent formation of viral plaques was counted manually to quantify the viral titre in PFU/mL […]

[2] = test system: CV-A6; test: Post-treatment assay, antiviral spectrum; format: cell-based, Coxsackievirus A6
Method: as §1, §2, §3

[3] = test system: EV-A71; test: Pre-treatment assay; format: cell-based, human enterovirus A71 (EV-A71) strain 41; details: pre-treatment 2 h, highest concentration, 12 hpi
Method: To confirm this finding, assays to investigate the effect of ZAF-47 on EV-A71 entry into cells were performed. With pre-treatment assay, we first treated the cells with different concentrations of ZAF-47 before subjecting them to EV-A71 infection. The aim was to investigate if ZAF-47 was able to bind to host surface receptors which would prevent the virions from binding and thus blocking viral entry. […] Even at the highest concentration, the reduction in viral titre (0.8 log10 PFU/mL decrease) was not as pronounced as post-treatment and could likely be due to drug toxicity. Thus, it is unlikely that ZAF-47 inhibits EV-A71 infection by binding with host receptors to block viral entry. With co-treatment assay, we first treated EV-A71 virions with ZAF-47 for 30 min before infecting the cells. The aim was to investigate if ZAF-47 was able to bind to viral surface proteins which would prevent the virions from binding to the host receptors and thus blocking viral entry. […] Thus, it is unlikely that ZAF-47 blocks EV-A71 entry into host cells by binding to viral surface proteins. Instead, using entry bypass assay, we were able to deduce that ZAF-47 most likely targets EV-A71 post-entry stages. […]
Seeded 24-well plates, with 1.5 × 10^5 RD cells per well, were incubated overnight at 37 °C with 5% CO2. […] The plates were frozen down at 12 hpi for viral titre quantification using viral plaque assay.

[4] = test system: replication-competent EV-A71 RNA replicon; test: Nano-luciferase reporter assay, replication-competent replicon; format: cell-based, human enterovirus A71 (EV-A71); details: RD cells, 12 h; ZAF-47 different concentrations, GuHCl 1 mM
Method: To identify specifically which of these two intrinsically linked processes that ZAF-47 inhibits, we transfected RD cells with EV-A71 RNA replicons that were either replication-competent or replication-defective and subsequently treated them with different concentrations of ZAF-47 for 12 h before detecting for luminescence. Both forms of replicons were previously established and validated. The replication-competent replicon is capable of self-replicating as it contains an intact 3D region that encodes for 3D polymerase (3D^pol) responsible for RNA replication (Figure 4c). […] In contrast, the replication-defective replicon contains a 3D region with 159 nucleotide deletion which would produce a non-functional 3D protein and impair RNA replication (Figure 4c). As such, cells containing the replication-defective replicon express luciferase upon IRES translation of the original replicons only. The transfected cells were also treated with negative control, DMSO and positive controls, guanidine hydrochloride (GuHCl) and cycloheximide (CHX), a RNA replication-specific inhibitor [50] and a general translation inhibitor [51] respectively.
Seeded 96-well plates, with 2 × 10^4 RD cells per well, were incubated overnight at 37 °C with 5% CO2. […]

Q: With `CC(=O)OC[C@]1(C)C(=O)CC[C@@]2(C)C(C/C=C3/C(=O)OC[C@@H]3Oc3cccc4cccnc34)=C(C)CC[C@@H]21` [ZAF-47, (14β)-(8′-Quinolinoxy)-3-ketone-9-dehydro-17-hydro-19-acetoxy–andrographolide] as the molecule, how does the viral titre ([1]; 10 µM, CV-B5-infected RD cells) read?
A: reducing the viral titres of the above-listed enteroviruses significantly

Q: And the IC50 ([1]; CVB5, CV-B5, Enterovirus B, drug treatment duration 12 h, RD cells)?
A: 2.46 µM

Q: What about the viral titre ([2]; 10 µM, CV-A6-infected RD cells) of the same molecule?
A: reducing the viral titres of the above-listed enteroviruses significantly

Q: And the IC50 ([2]; CVA6, CV-A6, Enterovirus A, drug treatment duration 96 h, RD cells)?
A: 3.16 µM

Q: And the “reduction in viral titre” value [3]?
A: 0.8 log10 PFU/mL

Q: And the “luminescence, replication-competent replicon” value [4]?
A: significant decrease in luminescence in a dose-dependent manner
